Measurements published in US20150148311A1, “NON-SYSTEMIC TGR5 AGONISTS” (Ardelyx, Inc., priority 2011, published 2015).
Like-named read-outs stand apart in the source and are kept apart here.

Experiments:
[1] = Compound concentration in gall bladder, LC-MS/MS, 8 h post dose; assay type: in vivo; details: 30 mg/kg; for Number of Mice with Gallbladder Concentration < LLOQ: mice below LLOQ / mice in group; for concentration at 8 h: male, C57BL/6, mouse, with contents, mice, gallbladder homogenate, read-out: Mean Example Gallbladder Concentration
Method: (§1) Eight hours later, each mouse was heavily anesthetized with isoflurane, the peritoneal cavity was opened and the gallbladder, with its entire contents, was carefully excised and weighed. Blood was collected from the left ventricle of the heart and processed to plasma in EDTA-coated tubes containing aprotinin and DPPIV inhibitor for measurement of total GLP-1 (K150FCC; Meso Scales Discovery, Gaithersburg Md.).
Compound concentrations in the gall bladder were determined as follows: each mouse was heavily anesthetized with isoflurane, the peritoneal cavity was opened and the gallbladder, with its entire contents, was carefully excised. After harvest, gall bladders were homogenized in 100 μL water using a micro-homogenizer. Samples of homogenate were diluted 1:5 in water and precipitated with three volumes of neat acetonitrile. After centrifugation, supernatants were analyzed by LC-MS/MS. The level of test compound present in gall bladder samples was interpolated from a standard curve for each individual compound prepared in a matrix of gallbladder homogenate from vehicle treated animals.

human TGR5 = target: T1, human TGR5 (Homo sapiens, UniProt Q8TDU6); experiment: Cell-based TGR5 assay, HEK293 cells stably expressing human TGR5, cAMP by HTRF; details: 0.05 nM to 10 μM
T1 construct: expressed in transfected cells
T1 sequence (Q8TDU6 1-330): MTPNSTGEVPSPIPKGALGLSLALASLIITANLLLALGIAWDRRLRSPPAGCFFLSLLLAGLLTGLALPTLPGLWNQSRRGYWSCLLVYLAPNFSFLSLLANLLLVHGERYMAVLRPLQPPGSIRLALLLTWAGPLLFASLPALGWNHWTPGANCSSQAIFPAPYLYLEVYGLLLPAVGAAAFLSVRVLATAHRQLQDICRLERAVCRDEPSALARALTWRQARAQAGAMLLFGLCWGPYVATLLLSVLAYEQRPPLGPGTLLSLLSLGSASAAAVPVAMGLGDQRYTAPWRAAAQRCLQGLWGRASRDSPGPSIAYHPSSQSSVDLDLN
In short: (§2)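 cAMP HTRF read-out, converted to concentration via standard curve, after a 30 min, 37 °C compound exposure in HBSS with 10 mM HEPES pH 7.4 and 0.5 mM IBMX, compounds serially diluted 3-fold from 10 mM DMSO stock then 100-fold. Cells: stable human TGR5 HEK293, or NCI-H716 expressing TGR5 endogenously.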

[2] = Compound plasma concentration, LC-MS/MS, 8 h post dose; assay type: in vivo; details: 30 mg/kg; for Number of Mice with Plasma Concentration < LLOQ: mice below LLOQ / mice in group; for concentration at 8 h: male, C57BL/6, mouse, mice, plasma, read-out: Mean Example Plasma Concentration
Method: as §1
Plasma samples were treated with acetonitrile containing an internal standard, precipitated proteins removed by centrifugation. Supernatants were analyzed by LC-MS/MS and compound concentrations were determined by interpolated from a standard curve prepared in plasma.

human IBAT = target: T2, human IBAT (Homo sapiens, UniProt Q12908); experiment: IBAT counter screen, [3H]taurocholic acid uptake in IBAT-transfected HEK293 cells; assay type: cell-based
T2 construct: expressed in transfected cells; host or cells: HEK293
T2 sequence (Q12908 1-348): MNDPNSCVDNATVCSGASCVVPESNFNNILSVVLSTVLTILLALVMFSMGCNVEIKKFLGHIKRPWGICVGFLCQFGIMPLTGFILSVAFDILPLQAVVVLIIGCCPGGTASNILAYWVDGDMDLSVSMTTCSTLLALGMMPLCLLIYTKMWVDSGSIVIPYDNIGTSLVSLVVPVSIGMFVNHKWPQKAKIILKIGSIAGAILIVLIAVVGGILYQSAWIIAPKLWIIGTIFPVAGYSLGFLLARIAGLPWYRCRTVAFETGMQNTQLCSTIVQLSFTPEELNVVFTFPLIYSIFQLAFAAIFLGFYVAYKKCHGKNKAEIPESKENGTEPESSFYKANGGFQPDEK
Method: Following a 40-min incubation, the solution was removed, and the cells were washed twice with uptake buffer. Cells were lysed by addition of 20 μL 0.1% Tween 80 followed by 100 μL scintillation fluid and counted using a TopCount (Perkin Elmer).

C57BL/6 male mice = experiment: In vivo gallbladder measurement (weight) 8 h post dose; details: 30 mg/kg; for Gallbladder weight/body weight fold change over vehicle, Significance: 8 h, vs. vehicle, one-way ANOVA, Dunnett's test; for Gallbladder weight/body weight fold change over vehicle, Mean: food removed, eight hours after dosing
Description: as §1

total GLP-1 = experiment: In vivo GLP-1 secretion, plasma total GLP-1 8 h post dose; details: Mus musculus, C57BL/6 male mice, food removed, plasma total GLP-1 eight hours after dosing, read-out: GLP-1 fold change over vehicle, Mean
Description: as §1

[3] = target: T3, endogenously expressed TGR5 in NCI H716 (Homo sapiens, UniProt Q8TDU6); experiment: Cell-based TGR5 assay, NCI-H716 cells endogenously expressing human TGR5, cAMP by HTRF; details: 30 min at 37 C, 22 nM to 50 μM, read-out: pEC50 endogenously expressed TGR5 in NCI H716 (converted)
T3 construct: human caecum carcinoma cell line NCI-H716 which endogenously expresses human TGR5; endogenous in cells; host or cells: NCI-H716
T3 sequence (Q8TDU6 1-330): T1 sequence (Q8TDU6 1-330)
In short: as §2

[4] = pEC50 Human TGR5, HEK293 cells stably expressing human TGR5, 30 min at 37 C
[5] = read-out: pEC50 human IBAT (converted)
[6] = HEK293 cells stably expressing human TGR5, 30 min at 37 C, read-out: pEC50 Human TGR5 (converted)

Row | SMILES | Number of Mice with Gallbladder Concentration < LLOQ [1] | concentration at 8 h [1] [nM] | EC50 (human TGR5; [4]) [nM] | Number of Mice with Plasma Concentration < LLOQ [2] | concentration at 8 h [2] [ng/mL] | EC50 (human IBAT; [5]) [nM] | EC50 (human TGR5; [6]) [nM] | Gallbladder weight/body weight fold change over vehicle, Significance (C57BL/6 male mice) | Gallbladder weight/body weight fold change over vehicle, Mean (C57BL/6 male mice) [fold change over vehicle] | response vs control in vivo at 30 mg/kg (total GLP-1) [%] | EC50 [3] [nM] | EC50 (human IBAT) [nM]
1 | O=C(O)CNC(=O)CNC(=O)CNC(=O)CCCCc1cc(Cl)c(CN2CSC[C@H]2C(=O)N2CCN(C3CC3)c3ccccc32)cc1Cl [Example 228] | 0/8 | 600 | < 100 | 8/8 | < 0.5 | > 25100 | – | – | – | – | – | –
2 | Cn1c(C(=O)NC[C@H](O)[C@@H](O)[C@H](O)[C@H](O)CO)cnc1SCc1cc(Cl)c(CN2CSC[C@H]2C(=O)N2CCN(C3CC3)c3ccccc32)cc1Cl [Example 175, 2-((2,5-dichloro-4-(((R)-4-(4-cyclopropyl-1,2,3,4-tetrahydroquinoxaline-1-carbonyl)thiazolidin-3-yl)methyl)benzyl)thio)-1-methyl-N-((2S,3R,4R,5R)-2,3,4,5,6-pentahydroxyhexyl)-1H-imidazole-5-carboxamide] | 0/8 | – | – | 7/8 | – | > 25100 | – | – | – | – | – | –
3 | CN(C[C@H](O)[C@@H](O)[C@H](O)[C@H](O)CO)C(=O)CCCCc1cc(Cl)c(CN2CSC[C@H]2C(=O)N2CCN(C3CC3)c3ccccc32)cc1Cl [Example 238] | 0/8 | 4400 | – | 3/8 | 1.2 | > 25100 | – | – | – | – | – | –
4 | O=C(CCCCc1cc(Cl)c(CN2CSC[C@H]2C(=O)N2CCN(C3CC3)c3ccccc32)cc1Cl)N[C@@H](C(=O)O)[C@@H](O)[C@H](O)[C@H](O)CO [Example 240] | 0/8 | 3920 | < 100 | 0/8 | 28.1 | > 25100 | – | – | – | – | – | –
5 | O=C(OC1(C(=O)N2CCN(C3CC3)c3ccccc32)CC1)c1cc(Cl)ccc1Cl [Example 166, 1-(4-cyclopropyl-1,2,3,4-tetrahydroquinoxaline-1-carbonyl)cyclopropyl 2,5-dichlorobenzoate] | 8/8 | < 12 | – | 2/8 | 1.4 | – | < 100 | n.s. | 1.2 | 150 | – | –
6 | O=C(N1CCN(C2CC2)c2ccccc21)C1(NCc2cc(Cl)c(O)cc2Cl)CC1 [Example 165, (4-Cyclopropyl-3,4-dihydroquinoxalin-1(2H)-yl)(1-((2,5-dichloro-4-hydroxybenzyl)amino)cyclopropyl)methanone] | 0/8 | 600 | – | 2/8 | 2.2 | – | < 100 | n.s. | 1.5 | 120 | – | –
7 | CN(C(=O)C1(OCc2cc(Cl)c(CCCNC(=O)NC[C@H](O)[C@@H](O)[C@H](O)[C@H](O)CO)cc2Cl)CC1)c1ccccc1OC1CC1 [Example 96, N-(2-cyclopropoxyphenyl)-1-(2,5-dichloro-4-(3-(3-((2S,3R,4R,5R)-2,3,4,5,6-pentahydroxyhexyl)ureido)propyl)benzyloxy)-N-methylcyclopropanecarboxamide] | 0/8 | 1340 | – | 8/8 | < 2 | – | < 100 | n.s. | 0.8 | 190 | < 100 | –
8 | O=C(NCCCCCc1cc(Cl)c(CN2CSC[C@H]2C(=O)N2CCN(C3CC3)c3ccccc32)cc1Cl)NC(CO)(CO)CO [Example 198] | 0/8 | 1300 | – | 0/8 | 3.6 | > 25100 | – | * (* p < 0.05 vs. vehicle; One-way ANOVA followed by Dunnett's test) | 1.9 | – | – | –
9 | O=C(O)CNC(=O)[C@H](CSSC[C@H](NC(=O)CC[C@H](NC(=O)CCCCc1cc(Cl)c(CN2CSC[C@H]2C(=O)N2CCN(C3CC3)c3ccccc32)cc1Cl)C(=O)O)C(=O)NCC(=O)O)NC(=O)CC[C@H](NC(=O)CCCCc1cc(Cl)c(CN2CSC[C@H]2C(=O)N2CCN(C3CC3)c3ccccc32)cc1Cl)C(=O)O [Example 241] | 8/8 | < 60 | < 100 | 8/8 | < 10 | – | – | – | – | – | – | > 25100
10 | O=C(N1CCN(C2CC2)c2ccccc21)C1(NCc2cc(Cl)cc(O)c2Cl)CC1 [Example 167, (4-cyclopropyl-3,4-dihydroquinoxalin-1(2H)-yl)(1-((2,5-dichloro-3-hydroxybenzyl)amino)cyclopropyl)methanone] | 0/8 | 3300 | – | 5/8 | 2.3 | – | 126 to 1000 | n.s. | 1.3 | 130 | – | –
11 | O=C([C@@H]1CSCN1Cc1cc(Cl)cc(O)c1Cl)N1CCN(C2CC2)c2ccccc21 [Example 169, (R)-(4-cyclopropyl-3,4-dihydroquinoxalin-1(2H)-yl)(3-(2,5-dichloro-3-hydroxybenzyl)thiazolidin-4-yl)methanone] | 0/8 | 1200 | – | 4/8 | 2.1 | – | < 100 | – | 1.9 | 150 | – | –
12 | CN(C(=O)C1(OCc2cc(Cl)c(CCCCCNC(=O)NC[C@H](O)[C@@H](O)[C@H](O)[C@H](O)CO)cc2Cl)CC1)c1ccccc1OC1CC1 [Example 258] | 0/8 | 700 | – | 7/8 | 9.4 | – | < 100 | n.s. | 1.1 | 110 | – | –
13 | CN(C(=O)C1(OCc2cc(Cl)c(CCCCC(=O)NC[C@H](O)[C@@H](O)[C@H](O)[C@H](O)CO)cc2Cl)CC1)c1ccccc1OC1CC1 [Example 259] | 0/8 | 100 | – | 6/8 | 1.1 | – | < 100 | n.s. | 0.9 | 140 | – | –
